Read-outs that look alike come from different tables or passages of the source.
How the values were obtained:
[1] = tested on: V. dahliae microsclerotia; assay: Viability of V. dahliae microsclerotia buried in amended soil (test tube bioassay); assay type: cell-based, Verticillium dahliae; conditions: for Ammonia level in soil coinciding with a rapid loss in the viability of microsclerotia: soil amended with MBM or SM
Method: The viability of V. dahliae microsclerotia retrieved from soil was determined using the following experimental model system. […] Microsclerotia suspended in crushed silica sand was added to a nylon pouch which was then buried in the soil or suspended in the head space of each tube. Water was added to each tube to bring soil moisture to 0.33 bar tension. The tubes were then loosely capped, and placed in the dark at 24° C. On each date of analysis, the nylon pouches were retrieved and an Anderson air sampler used to impact the pouch contents onto a medium (soil-pectate-tergitol) selective for growth of V. dahliae. […] The levels of NH3, NO2^− and NO3^− in soil were determined at each sample date. […] The slurry was once again mechanically disrupted and its pH determined. The slurry was centrifuged and supernatant analyzed for total (NH3+NH4^+), (NHO2+NO2^−) and NO3^− using an ion chromatograph.

V. dahliae MS [2] = tested on: V. dahliae MS
Method: The germination of V. dahliae MS was determined using a setup similar to that described above for exposure of V. dahliae MS to NH3 in buffered solution. Exceptions being various amounts of 0.270 M NaNO2 stock solution were added (from 0 to 2.0 mL) to 40 mL of 0.02 M citric acid solution (set to pH 5.0 with NaOH (Perrin and Dempsey 1974)) and brought to 50 mL volume with the same citric acid solution. All experiments were done in triiplicate and repeated. Solutions were filter sterilized and 15 mL placed into sterile screw cap tubes (total capacity 15.5 mL). Immediately, V. dahliae MS were added to each tube, the tube closed, placed at 24° C. and in the dark and inverted twice daily. At 8 hours, 1 and 4 days, V. dahliae MS viability was determined. The concentration of HNO2 in solutions was estimated as described below. The effect of NO2^− on survival of V. dahliae MS was tested by adding various amounts of NaNO2 (0 to 53 mM NO2^−) to citric acid buffer and pH set to 4.0, 5.0 and 6.0. The effect of type of NO2^− salt on survival of V. dahliae MS was tested by adding KNO2 or NaCl instead of NaNO2 to citric acid buffer (set to pH 5.0). […]
Various concentrations of HNO2 were generated in citric acid buffer solution at pH 4.0, 5.0 or 6.0 with NaNO2 added. […] Microsclerotia survival was determined as described previously for NH3 in glycine buffer.

V. dahliae MS [3] = conditions: sealer jars, 30 mL solution, four days, room temperature
Method: Exposure of V. dahliae MS to HNO2 gas was done using a similar procedure described above. To sealer jars (250 mL), 50 mL of a prepared solution of NaNO2 in citric acid solution was added. A V. dahliae MS bag was suspended in the atmosphere of the jar. The jar was sealed, and placed at 24° C. in the dark for 4 days. Thereafter the bags were retrieved and the viability of V. dahliae MS determined. This experiment was repeated and done in triplicate.
Various amounts of HNO2 in atmosphere were subjected to microsclerotia by suspending microsclerotia in sealer jars containing 30 mL of citric acid HNO2 buffer solution and incubated in the dark at room temperature for four days.

V. dahliae MS [4] = conditions: agar medium, germination recorded two weeks later
Method: NH3 was generated in SPT medium by addition of various concentrations of NH4Cl to the medium and varying the pH of the medium (7, 7.6, 8 and 8.5). Immediately following cooling and hardening of the medium, 25 microsclerotia per Petri dish were transferred individually with a needle and germination recorded two weeks later.
Various amountes of NH4Cl salt (to 0, 25, 50, 100 and 200 mM) was added to soil peclate medium (SPT) and the pH of the medium adjusted to 7.0, 7.6, 8.0 or 8.5 by addition of 5 M NaOH. For each level of NH4Cl and pH, three replicate dishes were poured. The agar was allowed to solidify for 2 hours and immediately thereafter 25 V. dahliae MS were individually transferred to each dish using a sterile hypodermic needle. The dishes were wrapped with Parafilm (American National Can, Neenah Wis.) to limit loss of NH3 by volatilization, and incubated for two weeks at 24° C. in the dark. The viability of V. dahliae MS was determined as percent of total MS forming colonies. The concentration of NH3 in medium was estimated as described below and ranged from 0 to 31 mM. The pH of medium after hardening and two weeks after incubation was tested using pH test strips (ColorpHast pH 5-10; EM Science, Gibbstown N.J.) and was within 0.5 units (limit of resolution of the test strips) of that set at the start.

V. dahliae MS [5] = conditions: glycine buffer pH 8.6, exposure of four days
Method: Various concentrations of NH3 were generated in glycine or tricine buffer solution at pH 8.6 with NH4Cl or (NH4)2SO4 added. A 15 mL test tube was filled with appropriate buffer and NH4^+ solution, microsclerotia added, the tube capped, then placed in the dark at 24° C. and the tubes inverted daily to suspend the microsclerotia in solution. Microsclerotia survival was determined by emptying contents of the tube into a Buchner funnel, the microsclerotia being retained on Whatman #42 filter paper, rinsed with distilled water, transferred to SPT medium by placing the filter paper in contact with the agar medium and removed leaving the microsclerotia adhering to the medium.
The final volume was brought to 50 mL with the same glycine solution. Solutions were then sterilized by filtration through a 0.22 um pore size filter and 15 mL placed into three replicate sterile screw cap tubes (total capacity 15.5 mL) About 200 V. dahliae MS were immediately added to each tube and the tube closed and placed at 24° C. and in the dark. Tubes were inverted every 12 hours to mix and suspend V. dahliae MS in the solution. […] At 8 hours, 1 and 4 days, the contents of each tube was passed onto a Buchner funnel containing sterile filter paper (Whatman #42). […] The viability of V. dahliae MS was determined as the percentage of MS forming colonies out of 50 counted per replicate dish. […]

N.N.O=S(=O)(O)O [(NH4)2SO4]
kill of microsclerotia ([1]; 400 or 800 mg N kg^−1, air-dried Beauseart soil stored 1.5 years): failed to accumulate HNO2 and kill microsclerotia
kill of microsclerotia ([1]; 400 or 800 mg N kg^−1, recently collected Mackenzie soil): death of microsclerotia

O=NO [HNO2, nitrous acid]
HNO2 concentration sufficient to kill all microsclerotia (V. dahliae MS [2]): about 0.025 mM
calculated HNO2 concentration required to kill all microsclerotia (V. dahliae MS [2]): above 0.10 mM
HNO2 solution concentration above which suspended microsclerotia died in atmosphere (V. dahliae MS [3]): 0.10 mM

N [NH3, Ammonia]
NH3 accumulation consistently accompanied with a rapid decline in the viability of microsclerotia in soil ([1]; in soil): greater than 10 mM
Ammonia level in soil coinciding with a rapid loss in the viability of microsclerotia [1]: > 20 mM
Ammonia level in soil coinciding with a rapid loss in the viability of microsclerotia ([1]; listed as Ammonia): > 65 mg N kg^−1 soil
NH3 concentration preventing germination of microsclerotia (V. dahliae MS [4]): > 3 mM
NH3 concentration preventing germination of microsclerotia (V. dahliae MS [5]): greater than 5 mM

N.O [NH4OH, ammonium hydroxide]
addition sufficient to induce levels of NH3 sufficient to kill microsclerotia ([1]; Thorndale or Beauseart soil, incubated four days (data not shown)): about 1800 mg NH4OH—N kg^−1
